Measurements from patent US5217953A, “Vasoactive intestinal peptide antagonist” (The United States of America as represented by the …, priority 1990, dated 1993).
Like-named read-outs stand apart in the source and are kept apart here. No end group written: not given here.

Tests used:
[1] = target: NSCLC VIP receptors (EPLC-65H membranes); experiment: 125I-VIP binding to EPLC-65H membranes; details: for IC50 / Kd: EPLC-65H membranes; for IC50: 37° C., 60 min, read-out: IC50, inhibition of specific 125I-VIP binding
Experimental: The binding properties and the adenylate cyclase activity of the VIP receptor in NSCLC cell lines were investigated. NSCLC cells were cultured in RPMI-1640 containing 10% heat inactivated fetal bovine serum (Carney et al. (1985) Cancer Res. 45:2913-2923). When a monolayer formed, the adherent cells were washed with PBS and treated with trypsin/EDTA. The cells were pelleted and resuspended in serum supplemented medium and incubated at 37° C. in 5% CO2 /95% air. Routinely the cells were passed 1/1 weekly and experiments were conducted when the cells were in exponential growth phase.
Cells were rinsed twice in PBS. Membranes were prepared from EPLC-65H by lysing cells in 20 mM Tris.HCl (pH7.5), 1 mg/ml bacitracin, 1 mM PMSF and 0.25M sucrose. The cells were sonicated (15 sec, 120 W) and the membranes centrifuged at 500×g for 5 min in a Beckman J-21 B centrifuge at 4° C. The supernatant was saved and the pellet resuspended, homogenized and centrifuged. The supernatants were combined and centrifuged at 50,000×g for 30 min. The pellet, which contains plasma membranes, was resuspended and 50 μg of membrane protein and 2×10^5 cpm of ^125 I-VIP (2200 Ci/mmol) was added to each assay tube in a total volume of 100 μl; the buffer was 50 mM Tris.maleate, 2 mM MgCl2, 2% BSA, 500 KIU/ml trasylol and 0.2 mg/ml bacitracin. The samples were incubated at 37° C. for 60 min. To terminate the reaction, the incubation solution was centrifuged for 3 min in a microfuge B. The supernatant, which contained free peptide was removed and the top of the pellet rinsed three times with cold assay buffer. The pellet, which contained bound ^125 I-VIP was counted in a gamma counter.
^125 I was purchased from NEN. VIP was iodinated using the chloramine T procedure (Christophe et al. (1976) J. Biol. Chem. 251:4629-4634). ^125 I-VIP was purified using gel filtration techniques. VIP peptides were purchased from Peninsula Laboratories Inc. (San Carlos, Calif.).

[2] = tested on: castrated rats injected with testosterone; experiment: Sexual behavior of castrated rats supplemented with testosterone; type: in vivo, rat
Experimental: Rats were castrated and injected with testosterone (4 μg/100 g BW) daily for 14 consecutive days. VIP (5 μg/animal) and the antagonists (30 μg/animal) were injected ip in a volume of 0.25 ml. Initial experiments were conducted using iv injections; however, as no significant differences were observed between iv and ip administration, ip injections were chosen in this model. When comparisons were made, the same group of rats was injected with one peptide and, after a period of at least 24 hr, with another peptide.

NCI-H1246 = experiment: Soft agar colony formation, NCI-H1246; type: cell-based; details: 1 μM, 2 weeks
Experimental: (§1) In order to test whether the VIP-neurotensin hybrid antagonist inhibited the growth of NSCLC, single viable cells (10^4) were plated in soft agar in the absence and presence of 1 μM VIP-neurotensin hybrid antagonist. After 2 weeks, colonies were stained with a vital dye and live colonies (>[…]) counted. The colony fraction (colonies in the presence of the VIP-neurotensin hybrid antagonist relative to the number of basal colonies) was calculated. Cell lines NCI-H522, NCI-H838, and NCI-H1246 had colony fractions of 0.45±0.16, 0.76±0.04, and 1.47±0.30, respectively. The VIP-neurotensin hybrid antagonist inhibited colony formation of cell lines NCI-H522 and NCI-H838 but not NCI-H1246.

NCI-H838 = experiment: Soft agar colony formation, NCI-H838; type: cell-based; details: 1 μM, 2 weeks
Experimental: as §1

NCI-H522 = experiment: Soft agar colony formation, NCI-H522; type: cell-based; details: 1 μM, 2 weeks
Experimental: as §1

VIP receptor = experiment: [125I]VIP binding to rat cortical astrocyte (glial) cell cultures; details: 60 pM [125I]VIP, intact cells, 4° C.; for displacement of VIP binding: 10 μM
Experimental: Rat cortical astrocyte cultures were prepared by previously described methods (Evans et al. (1984) J. Neurochem. 43:131; Brenneman et al.(1987) J. Cell Biol. 104:1603). VIP binding studies were conducted on intact cells at 4° C., using PBS containing 0.1% BSA. The cultures (1 mg protein/35 mm culture dish) were incubated with either VIP or the antagonist (10 μM to 1 pM) for 30 min before the addition of 60 pM [^125 I]VIP at Tyr-22 (2000 Ci/mmol; Amersham Corp., Arlington Heights, Ill). Labeled VIP was incubated with the cultures for 1 hr; the medium was then removed, and cells were washed three times by the addition and rapid removal of 1 ml PBS (at 4° C.). The labeled cells were dissolved in 0.02N NaOH and transferred for radioactivity counting.

castrated rats = experiment: Sexual behavior of castrated rats without testosterone supplementation; type: in vivo, rat
Source text: (§2) Male rats were sexually experienced Wistar-derived animals (250-300 g), approximately 3 months old from the Department of Hormone Research, Weizmann Institute of Science. All rats were kept in a 12-hr light, 12-hr dark cycle. Experiments were always conducted within the dark period 2-6 hrs after the onset of darkness. Before testing, each male was put in a separate cage for a period of at least 1 hr. A sexually receptive female (as tested by vaginal smearing) was introduced to each male. Latencies were defined as the intervals between copulatory behaviors (mounts and intromissions). These were recorded over a 15-min period. The latencies to the first copulatory event are reported separately.
After castration, the animals lose sexual activity in a time-dependent manner (Bradshaw et al. (1981) Endocrinology 109:1047; Reach et al. (1946) J. Exp. Zool. 101:91), and eventually all sexual activities are blocked. […] VIP (5 μg/animal) and the antagonists (30 μg/animal) were injected ip in a volume of 0.25 ml. Initial experiments were conducted using iv injections; however, as no significant differences were observed between iv and ip administration, ip injections were chosen in this model. When comparisons were made, the same group of rats was injected with one peptide and, after a period of at least 24 hr, with another peptide. The other parameters used for the experiment are described above.
The second paradigm was the castrated rat model.

[3] = tested on: pituitary-transplanted male rats; experiment: Sexual behavior of pituitary-grafted gonadally intact male rats; type: in vivo, rat; details: 5 ug iv
Source text: as §2
This procedure results in hyperprolactinemia and a decrease in sexual potency in male rats. Pituitary-transplanted male rats (8 weeks after transplantation) were injected with 5 μg VIP, iv. As a control, saline iv was injected at identical volumes. The peptide was injected into the tail vein, restraining the animal by hand (two people were involved in the actual injection). The animals were subjected to the behavioral tests immediately after the injection. At least 24 hr elapsed between two consecutive tests per animal (i.e. between saline injection and VIP injection). The doses of VIP were deduced from those used to induce penile erection in men (Ottesen et al. (1984) Br. Med. J. 288:9). The statistical analysis involved a single test measurement per animal.

cAMP levels in 5M2 cells = experiment: cAMP radioimmunoassay in 5M2 cells; type: cell-based; details: 5 min exposure
Experimental: The cAMP assays were performed by radioimmunoassay. 5M2 cells were exposed to stimuli in SIT medium (RPMI-1640 containing 10^-8 M Se2 O3, 1 μg/ml insulin and 3×10^-8 M transferrin) containing […] isobutyl-methyl-xanthine. After 5 min, the reaction was quenched by adding an equal volume of ice cold ethanol. The samples were vortexed and an aliquot of supernatant removed and added to 100 μl of 50 mM sodium acetate (pH 6.2). The sample (25 μl) was acetylated at 4° C. by adding 10 μl of triethylamine followed by 5 μl of acetic anhydride. Then 200 μl of goat anti-cyclic AMP antibody was added followed by 8,000 cpm of ^125 I-2-succinyl (tyrosine methyl ester)-cyclic AMP (NEN). After incubation for 16 hr at 4° C., 1 ml of charcoal suspension (2 mg/ml Norit-A charcoal in 100 mM phosphate buffer, pH 6.3, which contains 0.25% BSA) was added, the tubes vortexed and centrifuged at 1,500×g for 10 min. An aliquot (1 ml) of supernatant, which contains radiolabeled antigen-antibody complex, was counted in a gamma counter.

[4] = tested on: NSCLC VIP receptors (EPLC-65H membranes); experiment: 125I-VIP binding to EPLC-65H membranes
[5] = coinjected ip with VIP at 3-fold molar excess

GHRH: unlabeled peptide tested for specificity of 125I-VIP binding
IC50 [1]: 20 nM

LMYPTYLK [octamere]
effect on VIP-stimulated sexual behavior ([2]; coinjected with VIP (5 ug), 20-fold molar excess, 30 ug/animal ip): specifically inhibited VIP effects on sexual behavior

Lys-Pro-Arg-Arg-Pro-Tyr-Thr-Asp-Asn-Tyr-Thr-Arg-Leu-Arg-Lys-Gln-Met-Ala-Val-Lys-Lys-Tyr-Leu-Asn-Ser-Ile-Leu-Asn-NH2 (KPRRPYTDNYTRLRKQMAVKKYLNSILN-NH2) [VIP-neurotensin hybrid antagonist]
colony fraction (colonies with antagonist relative to basal colonies) (NCI-H1246): 1.47±0.30 | colony fraction (colonies with antagonist relative to basal colonies) (NCI-H838): 0.76±0.04 | effect on VIP-stimulated sexual activity [2, 5]: complete blockade of VIP activity | sexual activity values lower than the control values [2, 5]: 2 fold | latency to the first copulatory event ([2]; coinjected ip with VIP at 3-fold molar excess, 40±9 with VIP alone): 92 ± 20 s | rate of copulatory events ([2]; injected by itself, 10 animals, from 1.66±0.12): 1.16±0.11 | intromission interval ([2]; injected by itself, 10 animals, from 36.9±2.4): 53.4 ± 8.6 s | IC50 [1]: 10 nM | colony fraction (colonies with antagonist relative to basal colonies) (NCI-H522): 0.45±0.16 | IC50 (VIP receptor; read-out: IC50, first binding site of biphasic displacement curve): 0.05 nM | IC50 (VIP receptor; read-out: IC50, second binding site of biphasic displacement curve): 100 nM | displacement of VIP binding (VIP receptor): 85-90%

VIP: a 28 amino acid peptide with an amidated C-terminal; widely distributed peptide hormone
drop in the intervals between copulatory events (including latency to first intromission) (castrated rats; 14 days after castration, 5 ug ip): 2- to 4 fold | intromission latency (castrated rats; 14 days after castration, 5 ug ip, six animals, 90±16 before): 35 ± 2.4 s | animals that ejaculated (castrated rats; model without testosterone supplementation, after VIP treatment): 1 of 6 | mean latency to the first mount and intromission [3]: 23 ± 4 s | mean interval between copulatory events ([3]; 15-min test, vs saline): significant reduction | rate of copulation ([3]; 15-min test, vs saline): significant increase | decrease in the latency to the first intromission ([3]; vs control): 2- to 3 fold | rats that ejaculated ([3]; 10-20% before treatment): all of the rats ejaculated | decrease in intervals (intromission latencies) between copulatory events ([2]; 5 ug ip): 2 fold | latency to the first intromission ([2]; 5 ug ip, nine animals, 74±10 without VIP): 40 ± 9 s | increase in the rate of intromissions before ejaculation or end of test period ([2]; 5 ug ip, vs saline injection): ~2 fold | animals that ejaculated ([2]; after VIP treatment, 15 animals): 80-100% | IC50 [1]: 10 nM | displacement of VIP binding (VIP receptor): 75% | ED50, increase of cAMP levels (cAMP levels in 5M2 cells): 10 nM

^125 I-VIP: VIP iodinated using the chloramine T procedure; radiolabeled VIP
time to half maximal specific binding (association) [4]: 20 min | time to maximal specific binding (association) [4]: 60 min | Kd ([1]; read-out: Kd, high affinity site (Scatchard)): 0.7 nM | Kd ([1]; read-out: Kd, low affinity site (Scatchard)): 20 nM | time at which half of the specific binding was reversed (dissociation) ([1]; after addition of 1 μM unlabeled VIP): 40 min

helodermin
IC50 [1]: 100 nM

peptide histidine isoleucine amide (HADGVFTSDYSRLLGQISAKKYLESLI-NH2; UniProt P01283 81-107, looked up) [PHI, cosynthesized with VIP on the same protein precursor]
average latency to intromissions and rate of copulatory events, difference from VIP by itself ([2]; PHI by itself or VIP plus PHI equimolar): 2 fold | animals that ejaculated ([2]; in the presence of PHI, 5 ug iv): one of nine | effect on rat sexual behavior ([2]; peptide by itself (5 ug iv) or with VIP): inhibited rat sexual behavior and VIP-induced rat sexual behavior | IC50 [1]: 80 nM

secretin
IC50 [1]: 300 nM
